Measurements as given in PubChem BioAssay (NCI).
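1) Cells in 96-well plates. 2) Compound, 48 h, 5 concentrations. 3) Linear interpolation between surrounding doses. 4) Unreached endpoint = highest concentration. GI50 is the concentration that inhibits growth by half. TGI marks complete inhibition of growth.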

How the values were obtained:
Test in all cases: NCI tumour cell line growth inhibition, 48 h
[1] = test system: A549 NSCLC
[2] = test system: RPMI-8226 leukemia
[3] = test system: CAKI-1 renal
[4] = test system: COLO 205 colon
[5] = test system: SNB-75 CNS
[6] = test system: UACC-62 melanoma
[7] = test system: BT-549 breast
[8] = test system: HT29 colon
[9] = test system: T-47D breast
[10] = test system: SR leukemia
[11] = test system: SK-OV-3 ovarian
[12] = test system: SNB-19 CNS
[13] = test system: MDA-MB-231 breast
[14] = test system: TK-10 renal
[15] = test system: NCI-H226 lung
[16] = test system: CCRF-CEM leukemia
[17] = test system: SF-539 CNS
[18] = test system: OVCAR-5 ovarian
[19] = test system: HOP-92 NSCLC
[20] = test system: MCF7 breast
[21] = test system: UACC-257 melanoma
[22] = test system: HL-60(TB) leukemia
[23] = test system: NCI-H522 lung
[24] = test system: PC-3 prostate
[25] = test system: NCI/ADR-RES ovarian
[26] = test system: SF-268 CNS
[27] = test system: LOX IMVI melanoma
[28] = test system: HCT-15 colon
[29] = test system: OVCAR-8 ovarian
[30] = test system: HOP-62 NSCLC
[31] = test system: SK-MEL-2 melanoma
[32] = test system: KM12 colon
[33] = test system: RXF 393 renal
[34] = test system: HCC-2998 colon
[35] = test system: DU-145 prostate
[36] = test system: MOLT-4 leukemia
[37] = test system: HCT-116 colon
[38] = test system: IGROV1 ovarian
[39] = test system: OVCAR-3 ovarian
[40] = test system: NCI-H23 lung
[41] = test system: UO-31 renal
[42] = test system: ACHN renal
[43] = test system: 786-0 renal
[44] = test system: HS 578T breast
[45] = test system: SW-620 colon
[46] = test system: SN12C renal
[47] = test system: MDA-MB-435
[48] = test system: SF-295 CNS
[49] = test system: SK-MEL-5 melanoma
[50] = test system: U251 CNS
[51] = test system: NCI-H460 lung
[52] = test system: EKVX NSCLC
[53] = test system: M14 melanoma
[54] = test system: A498 renal
[55] = test system: SK-MEL-28 melanoma
[56] = test system: K-562 leukemia
[57] = test system: MALME-3M melanoma
[58] = test system: OVCAR-4 ovarian

O=c1cccc(C#CC#C[C@@H]2O[C@H]2CO)o1
GI50 [1]: 2.25 µM
TGI [1]: 4.8 µM
GI50 [2]: 1.7 µM
TGI [2]: 5.49 µM
GI50 [3]: 1.1 µM
TGI [3]: 2.71 µM
GI50 [4]: 0.201 µM
TGI [4]: 0.388 µM
GI50 [5]: 0.434 µM
TGI [5]: 4.07 µM
GI50 [6]: 0.477 µM
TGI [6]: 1.1 µM
GI50 [7]: 2 µM
TGI [7]: 3.73 µM
GI50 [8]: 0.429 µM
TGI [8]: 2.53 µM
GI50 [9]: 1.33 µM
TGI [9]: 3.32 µM
GI50 [10]: 0.621 µM
TGI [10]: > 100 µM
GI50 [11]: 4.05 µM
TGI [11]: 12.6 µM
GI50 [12]: 3.36 µM
TGI [12]: 12 µM
GI50 [13]: 0.233 µM
TGI [13]: 0.877 µM
GI50 [14]: 1.47 µM
TGI [14]: 3.38 µM
GI50 [15]: 0.627 µM
TGI [15]: 1.4 µM
GI50 [16]: 0.192 µM
GI50 [17]: 1.91 µM
TGI [17]: 3.68 µM
GI50 [18]: 0.49 µM
TGI [18]: 1.88 µM
GI50 [19]: 1.06 µM
TGI [19]: 3.34 µM
GI50 [20]: 0.525 µM
TGI [20]: 1.36 µM
GI50 [21]: 2.17 µM
TGI [21]: 4.52 µM
GI50 [22]: 3.12 µM
TGI [22]: > 100 µM
GI50 [23]: 0.814 µM
GI50 [24]: 1.82 µM
TGI [24]: 4.1 µM
GI50 [25]: 1.24 µM
TGI [25]: 4.53 µM
GI50 [26]: 1.78 µM
TGI [26]: 3.91 µM
GI50 [27]: 0.797 µM
TGI [27]: 1.73 µM
GI50 [28]: 1.42 µM
TGI [28]: 3.14 µM
GI50 [29]: 1.03 µM
TGI [29]: 3.12 µM
GI50 [30]: 1.55 µM
TGI [30]: 3.03 µM
GI50 [31]: 2.2 µM
GI50 [32]: 2.06 µM
TGI [32]: 7.47 µM
GI50 [33]: 1.77 µM
TGI [33]: 3.98 µM
GI50 [34]: 0.217 µM
TGI [34]: 0.55 µM
GI50 [35]: 2.42 µM
TGI [35]: 5.97 µM
GI50 [36]: 0.33 µM
TGI [36]: > 100 µM
GI50 [37]: 0.274 µM
GI50 [38]: 0.183 µM
TGI [38]: 0.339 µM
GI50 [39]: 2.06 µM
TGI [39]: 3.69 µM
GI50 [40]: 0.23 µM
TGI [40]: 0.45 µM
GI50 [41]: 1.06 µM
TGI [41]: 2.88 µM
GI50 [42]: 0.845 µM
TGI [42]: 2.08 µM
GI50 [43]: 0.626 µM
TGI [43]: 1.43 µM
GI50 [44]: 5.18 µM
TGI [44]: 24.5 µM
GI50 [45]: 0.746 µM
TGI [45]: 3.77 µM
GI50 [46]: 0.465 µM
TGI [46]: 0.915 µM
GI50 [47]: 2.12 µM
TGI [47]: 4.56 µM
GI50 [48]: 2.64 µM
TGI [48]: 9.03 µM
GI50 [49]: 1.87 µM
TGI [49]: 3.9 µM
GI50 [50]: 1.46 µM
TGI [50]: 3.07 µM
GI50 [51]: 2.03 µM
TGI [51]: 4.63 µM
GI50 [52]: 1.79 µM
TGI [52]: 3.43 µM
GI50 [53]: 0.414 µM
GI50 [54]: 17.7 µM
TGI [54]: 33.3 µM
GI50 [55]: 0.27 µM
TGI [55]: 1.36 µM
GI50 [56]: 1.49 µM
TGI [56]: > 100 µM

COc1ccc(-c2cc(=O)oc3c4c(ccc23)OCN(Cc2ccc(F)cc2)C4)cc1
GI50 [1]: 25.6 µM
TGI [1]: > 100 µM
GI50 [2]: 15.4 µM
TGI [2]: 37.1 µM
GI50 [3]: 14.7 µM
TGI [3]: 44.3 µM
GI50 [4]: 18.7 µM
TGI [4]: 36.1 µM
GI50 [5]: 6.62 µM
TGI [5]: 25.3 µM
GI50 [6]: 14.7 µM
TGI [6]: 29.3 µM
GI50 [7]: 14.6 µM
TGI [7]: 31.3 µM
GI50 [8]: 17.6 µM
TGI [8]: 34.9 µM
GI50 [9]: 13.5 µM
TGI [9]: 43.8 µM
GI50 [10]: 13 µM
TGI [10]: 39.9 µM
GI50 [11]: 19.1 µM
TGI [11]: 52.9 µM
GI50 [12]: 15.6 µM
TGI [12]: 36.4 µM
GI50 [13]: 18.5 µM
TGI [13]: 40.2 µM
GI50 [14]: 16.1 µM
TGI [14]: 49.3 µM
GI50 [15]: 18.2 µM
TGI [15]: 54.5 µM
GI50 [16]: 25.8 µM
TGI [16]: 82 µM
GI50 [17]: 15.8 µM
TGI [17]: 32.5 µM
GI50 [18]: 18.4 µM
TGI [18]: 45.1 µM
GI50 [19]: 10 µM
TGI [19]: 24.2 µM
GI50 [20]: 15.7 µM
TGI [20]: 34.5 µM
GI50 [21]: 14.9 µM
TGI [21]: 29.9 µM
GI50 [22]: 23.2 µM
TGI [22]: 57.4 µM
GI50 [23]: 16.6 µM
TGI [23]: 33.6 µM
GI50 [24]: 15.8 µM
TGI [24]: 44.1 µM
GI50 [25]: 17.2 µM
TGI [25]: 42.9 µM
GI50 [26]: 16.6 µM
TGI [26]: 34.8 µM
GI50 [27]: 16.7 µM
TGI [27]: 32.3 µM
GI50 [28]: 15.4 µM
TGI [28]: 31.8 µM
GI50 [29]: 17.2 µM
TGI [29]: 37.7 µM
GI50 [57]: 15.4 µM
TGI [57]: 32.7 µM
GI50 [30]: 14.4 µM
TGI [30]: 30.8 µM
GI50 [31]: 16.3 µM
TGI [31]: 31.3 µM
GI50 [32]: 17.6 µM
TGI [32]: 35.2 µM
GI50 [33]: 13 µM
TGI [33]: 29.2 µM
GI50 [34]: 19.2 µM
TGI [34]: 37 µM
GI50 [35]: 24.3 µM
TGI [35]: 59.9 µM
GI50 [36]: 19.4 µM
TGI [36]: 58.3 µM
GI50 [37]: 13.6 µM
TGI [37]: 27.7 µM
GI50 [38]: 20.5 µM
TGI [38]: 51.5 µM
GI50 [39]: 15.3 µM
TGI [39]: 29.9 µM
GI50 [40]: 20.5 µM
TGI [40]: 49.4 µM
GI50 [41]: 7.26 µM
TGI [41]: 37.9 µM
GI50 [42]: 19.4 µM
TGI [42]: 65 µM
GI50 [43]: 15.1 µM
TGI [43]: 32.8 µM
GI50 [44]: 15.8 µM
TGI [44]: 47.9 µM
GI50 [45]: 16.3 µM
TGI [45]: 31.8 µM
GI50 [46]: 15.6 µM
TGI [46]: 32.2 µM
GI50 [47]: 16.5 µM
TGI [47]: 34.7 µM
GI50 [48]: 15 µM
TGI [48]: 30 µM
GI50 [58]: 17.4 µM
TGI [58]: 43.2 µM
GI50 [49]: 12.7 µM
TGI [49]: 25.4 µM
GI50 [50]: 14.8 µM
TGI [50]: 29 µM
GI50 [51]: 15.9 µM
TGI [51]: 30.2 µM
GI50 [54]: 1.23 µM
TGI [54]: 10.3 µM
GI50 [55]: 15.1 µM
TGI [55]: 30.7 µM
GI50 [56]: 19.3 µM
TGI [56]: 68.4 µM
